Literature values as cited in patent publication US7932258B2, “Use of a partially neutralized, anionic (meth) acrylate copolymer as a coating for the production of a medicament pharmaceutical form releasing active substance at reduced pH values” (Evonik Roehm GmbH, priority 2005, dated 2011).

Settings: pH 4.0

Solubility and stability of the active substance: adequately soluble and stable
SMILES: CC(=O)Oc1ccccc1C(=O)O [Acetylsalicylic acid]
